# Experimental data published in ChEMBL document CHEMBL3352326, “Synthesis of 2,3-di- and 2,2,3-trisubstituted-3-methoxycarbonyl-γ-butyrolactones as potent antitumor agents” (Eur J Med Chem, 2015).
# Activity calls are given as the source filed them. The calls are words filed in the database; no cut-off is given here.
# How the values were obtained:
# [1] = Growth inhibition of human HL60 cells at 10 uM after 72 hrs by MTS assay; format: functional; settings: HL-60, 72 h, read-out: GI
# KB = test: Growth inhibition of human KB cells at 10 uM after 72 hrs by MTS assay; format: functional; settings: read-out: GI
# [2] = Growth inhibition of human HCT116 cells at 10 uM after 72 hrs by MTS assay; format: functional; settings: HCT-116, 72 h, read-out: GI
# MCF7 = test: Growth inhibition of human MCF7 cells at 10 uM after 72 hrs by MTS assay; format: functional; settings: MCF7, 72 h, read-out: GI
# HL-60 [3] = test: Induction of necrosis in intact human HL60 cells assessed as cytosolic LDH release at 50 uM; format: functional, cell-based
# HL-60 [4] = test: Induction of apoptosis in human HL60 cells assessed as dead cells level at 100 nM annexin V-PE and 7-AAD staining based by flow cytometry (reference value: 0.4%); format: functional
# HL-60 [5] = test: Induction of apoptosis in human HL60 cells assessed as late apoptosis cells level at 100 nM annexin V-PE and 7-AAD staining based by flow cytometry (reference value: 0.4%); format: functional
# HL-60 [6] = test: Induction of necrosis in intact human HL60 cells assessed as cytosolic LDH release at 1 uM; format: functional, cell-based
# HL-60 [7] = test: Induction of cell cycle arrest in human HL60 cells assessed as accumulation at G0/G1 phase at 50 nM after 48 hrs by propidium iodide staining based flow cytometry (reference value: 42.9%); format: functional
# HL-60 [8] = test: Induction of apoptosis in human HL60 cells assessed as early apoptotic cells level at 100 nM annexin V-PE and 7-AAD staining based by flow cytometry (reference value: 18.5%); format: functional
# HL-60 [9] = test: Induction of apoptosis in human HL60 cells assessed as intact cells level at 100 nM annexin V-PE and 7-AAD staining based by flow cytometry (reference value: 80.7%); format: functional
# HL-60 [10] = test: Induction of cell cycle arrest in human HL60 cells assessed as accumulation at G2/M phase at 50 nM after 48 hrs by propidium iodide staining based flow cytometry (reference value: 11.6%); format: functional
# HL-60 [11] = test: Induction of cell cycle arrest in human HL60 cells assessed as accumulation at subG1 phase at 50 nM after 48 hrs by propidium iodide staining based flow cytometry (reference value: 0.5%); format: functional
# HL-60 [12] = test: Induction of cell cycle arrest in human HL60 cells assessed as accumulation at S phase at 50 nM after 48 hrs by propidium iodide staining based flow cytometry (reference value: 45%); format: functional
Structure (SMILES),inhibition of growth at 10 µM [1] [%],inhibition of growth at 10 µM (KB) [%],inhibition of growth at 10 µM [2] [%],inhibition of growth at 10 µM (MCF7) [%],other results
COC(=O)C1(Cc2ccc(OC)cc2)CC(=O)OC1c1ccco1 (stereo not given),29,32,0,0,
COC(=O)c1ccc(CC2(C(=O)OC)CC(=O)OC2(C)c2ccccc2)cc1 (stereo not given),43,22,44,35,
CC1=CC(=O)c2ccccc2C1=O,,,,,Activity (HL-60 [3]): Active
COC(=O)C1(Cc2ccccc2)CC(=O)OC1(C)C (stereo not given),9,0,15,7,
COC(=O)C1(Cc2ccccc2C(F)(F)F)CC(=O)OC1c1ccccc1 (stereo not given),28,42,25,35,
COC(=O)C1(Cc2ccc3c(c2)OCO3)CC(=O)OC1c1cc(OC)c(OC)c(OC)c1 (stereo not given),10,0,22,8,
COC(=O)C1(Cc2cccc(C(F)(F)F)c2)CC(=O)OC1c1ccccc1 (stereo not given),34,39,14,11,
COC(=O)C1(Cc2ccc(OC)cc2)CC(=O)OC1c1ccccc1 (stereo not given),15,19,4,0,
COC(=O)C1(Cc2cccc(OC)c2)CC(=O)OC1c1cc(OC)c(OC)c(OC)c1 (stereo not given),10,0,20,13,
COC(=O)C1(Cc2ccc(OC)cc2)CC(=O)OC1c1ccc(C(F)(F)F)cc1 (stereo not given),2,0,0,4,
COC(=O)C1(Cc2ccccc2OC)CC(=O)OC1c1cc(OC)c(OC)c(OC)c1 (stereo not given),22,6,19,12,
COC(=O)[C@@]1(Cc2ccc(OC)cc2)CC(=O)O[C@]1(C)c1ccccc1,68,98,56,59,
COC(=O)C1(Cc2ccc(OC)cc2)CC(=O)OC1c1ccccc1C(F)(F)F (stereo not given),23,31,0,0,
COC(=O)C1(Cc2ccc(OC)cc2)CC(=O)OC1c1ccc(F)cc1 (stereo not given),37,33,0,4,
COC(=O)C1(Cc2ccccc2OC)CC(=O)OC1(C)c1ccccc1 (stereo not given),34,9,13,10,
COC(=O)C1(Cc2ccc(C(F)(F)F)cc2)CC(=O)OC1c1ccccc1 (stereo not given),4,4,4,0,
COC(=O)C1(Cc2ccc(OC)cc2)CC(=O)OC1c1cc(OC)c(OC)c(OC)c1 (stereo not given),32,16,24,27,
COC(=O)C1(Cc2ccc3c(c2)OCO3)CC(=O)OC1c1ccccc1 (stereo not given),18,0,18,11,
COC(=O)c1ccc(CC2(C(=O)OC)CC(=O)OC2c2ccccc2)cc1 (stereo not given),19,12,0,0,
COC(=O)C1(Cc2ccc(C(F)(F)F)cc2)CC(=O)OC1(C)c1ccccc1 (stereo not given),28,15,25,19,
CCC1(c2ccccc2)OC(=O)CC1(Cc1ccc(OC)cc1)C(=O)OC (stereo not given),30,11,28,21,

Structure (SMILES),inhibition of growth at 10 µM [1] [%],inhibition of growth at 10 µM (KB) [%],inhibition of growth at 10 µM [2] [%],inhibition of growth at 10 µM (MCF7) [%],other results
COC(=O)C1(Cc2ccccc2)CC(=O)OC1c1ccccc1 (stereo not given),22,18,0,0,
COC(=O)C1(Cc2cccc(OC)c2)CC(=O)OC1(C)c1ccccc1 (stereo not given),30,5,14,16,
COC(=O)C1(Cc2ccccc2OC)CC(=O)OC1c1ccccc1 (stereo not given),42,7,23,18,
COC(=O)C1(Cc2ccccc2)CC(=O)OC1(C)c1cc(OC)c(OC)c(OC)c1 (stereo not given),7,0,0,2,
COC(=O)C1(Cc2ccccc2)CC(=O)OC1(C)c1cccc(C(F)(F)F)c1 (stereo not given),20,34,14,14,
CCCCCCC1OC(=O)CC1(Cc1ccc(OC)cc1)C(=O)OC (stereo not given),8,13,12,28,
COC(=O)C1(Cc2ccc(OC)cc2)CC(=O)OC1c1cccc(C(F)(F)F)c1 (stereo not given),14,25,10,15,
COC(=O)C1(Cc2ccccc2)CC(=O)OC1c1cc(OC)c(OC)c(OC)c1 (stereo not given),27,2,7,17,
COC(=O)C1(Cc2ccccc2C(F)(F)F)CC(=O)OC1(C)c1ccccc1 (stereo not given),0,0,18,6,
COC(=O)C1(Cc2ccccc2)CC(=O)OC1(C)c1ccccc1 (stereo not given),22,6,9,13,
CCC1(c2ccccc2)OC(=O)CC1(Cc1ccccc1)C(=O)OC (stereo not given),17,22,25,12,
COC(=O)C1(Cc2ccccc2)CC(=O)OC12CCCCC2 (stereo not given),4,7,0,1,
COC(=O)C1(Cc2cc(OC)c(OC)c(OC)c2)CC(=O)OC1c1cc(OC)c(OC)c(OC)c1 (stereo not given),0,0,13,3,
COC(=O)C1(Cc2cccc(C(F)(F)F)c2)CC(=O)OC1(C)c1ccccc1 (stereo not given),21,21,22,20,
COC(=O)C1(Cc2ccc(OC)cc2)CC(=O)OC1(C)c1cc(OC)c(OC)c(OC)c1 (stereo not given),24,0,8,7,
COC(=O)C1(Cc2ccc(OC)cc2)CC(=O)OC1(c1ccccc1)C(F)(F)F (stereo not given),64,56,20,8,
COC(=O)[C@]1(Cc2ccc(OC)cc2)CC(=O)O[C@]1(C)c1ccccc1,24,15,0,0,
COC(=O)C1(Cc2ccc(OC)cc2)CC(=O)OC1(C)c1cccc(C(F)(F)F)c1 (stereo not given),52,38,30,46,
COc1cccc2c1C(=O)c1c(O)c3c(c(O)c1C2=O)C[C@@](O)(C(=O)CO)C[C@@H]3O[C@H]1C[C@H](N)[C@H](O)[C@H](C)O1 [DOXORUBICIN],,,,,Activity (HL-60 [4]): 0.5%; Activity (HL-60 [5]): 3.15%; Activity (HL-60 [6]): inactive; Activity (HL-60 [7]): 23%; Activity (HL-60 [8]): 81.65%; Activity (HL-60 [9]): 14.7%; Activity (HL-60 [10]): 40%; Activity (HL-60 [11]): 4.5%; Activity (HL-60 [12]): 32.5%
COC(=O)C1(Cc2cccc(OC)c2)CC(=O)OC1c1ccccc1 (stereo not given),37,0,14,12,
COC(=O)C1(Cc2cc(OC)c(OC)c(OC)c2)CC(=O)OC1c1ccccc1 (stereo not given),7,0,16,1,
